From patent US20060116403A1, “Therapeutic target and uses thereof” (priority 2002, published 2006)

Key:
[1] = test system: human vascular smooth muscle cells (internal mammary artery); assay: 35S-sulfate incorporation into total secreted proteoglycans (CPC precipitation); type: cell-based; settings: PDGF 50 ng/ml
Method: The Human Ethics Committee of the Alfred Hospital and Baker Heart Research Institute approved the acquisition of tissue.
Cells were metabolically labeled with [^35S]-sulfate ([…]) for the final 24 h.
The culture media were collected and each plate rinsed with Dulbecco's PBS (0.25 ml). Aliquots (50 μl) of the media sample were spotted in duplicate on 30×15 mm rectangles of Whatman® 3M chromatography paper (Aldrich, Milwaukee, U.S.A.). The paper was washed five times in a solution containing cetylpyridinium chloride (CPC, 1% w/v) and NaCl (50 mM). Following air drying at room temperature, the paper from each sample was placed in liquid scintillation fluid (Packard, Groningen, The Netherlands) and radioactivity counted in a Beckman Coulter liquid scintillation analyzer (Fullerton, U.S.A). Counts from cells labeled with [^35S]-sulfate and Tran^35SLabel represented total sulfated GAGs and total core protein respectively.

[2] = test system: human LDL; assay: LDL affinity chromatography of radiolabeled proteoglycans; type: cell-based; settings: PDGF treated cells compared to untreated cells
Method: Human blood samples were obtained from healthy subjects. LDL (d=1.019−1.063 g/ml) was purified from blood by sequential density gradient ultracentrifugation as described by Heinecke, J. W., Baker, L., Rosen, H. & Chait, A. Superoxide-mediated modification of low density lipoprotein by arterial smooth muscle cells. J Clin Invest 77, 757-61 (1986). The interaction of total pooled intact proteoglycan preparations with native human LDL was assessed using LDL affinity chromatography, providing a measure of binding capacity. […] Sepharose was prepared in the presence of excess heparin to protect the GAG binding sites. The columns were washed with HEPES buffer above and then with 1M NaCl to remove heparin. Each sample (80,000 cpm) was applied to a separate column. The columns were washed extensively with low salt buffer then eluted (5×0.5 ml) with 1M NaCl to elute bound proteoglycans. Finally the columns were stripped with high salt, high urea buffer. The aggregate radioactivity retained by the LDL column after extensive washing and eluted with 1M NaCl was determined as the binding capacity for the column.
We observed a 36% increase in the binding capacity of proteoglycans in PDGF treated cells compared to untreated cells (FIG. 5).

[3] = test system: vascular smooth muscle cells; assay: Sepharose 6B size exclusion chromatography of cleaved GAG chains; type: cell-based, human
[4] = test system: human LDL; assay: Gel Mobility Shift Assay of core protein labelled proteoglycans binding to human LDL; settings: PDGF stimulated
Method: A new approach to these studies is now used in which the proteoglycan core proteins are metabolically radio-labelled and used to study the binding of human LDL. Cells are incubated with Translabel® (ICN Biochemicals) (^35S-methioinine and cysteine amino acids) and the amino acids are incorporated into the core proteins.
Core protein labelled proteoglycans were isolated by DEAE sepharose ion exchange chromatography and then the binding to human LDL was studied in a Gel Mobility Shift Assay in which a set amount of radiolabeled proteoglycan is incubated with various amounts of LDL and then the bound and free proteoglycans are separated on a flat bed agarose gel.

Substance: PDGF: human recombinant platelet derived growth factor-BB, growth factor stimulus
- increase of proteoglycan production [1]: approximately two-fold
- increase in LDL binding capacity of proteoglycans [2]: 36%
- Kav of cleaved GAG chains, PDGF stimulated [3]: 0.45
- half-maximal saturation concentration of LDL, PDGF stimulated cells [4]: 25 µg/mL
